Assay results published in patent US20180338952A1, “COMPOSITIONS AND METHODS FOR TREATING AND DIAGNOSING OCULAR DISORDERS” (Translatum Medicus Inc., priority 2014, published 2018).
“Also recorded” adds a separate entry of the source.

Tests used:
[1] = test system: retinal function (b-wave amplitude); assay: Electroretinography toxicity study of systemic ICG; conditions: high (5.0 mg/kg) and low (0.35 mg/kg) systemic dose vs PBS; three weeks following injection
Description: Electroretinography (ERG) was performed to evaluate potential toxicity.
Electroretinography (ERG): animals receiving ICG or PBS were evaluated using the Espion (DiagnosysLLC, USA) mini-Ganzfeld ERG system. Following anesthesia, animals were placed on an electrically silent heating pad and gold coil electrodes placed on the corneal surface after application of GenTeal lubricating drops. Following a short train of dim flashes (0.01 candela s/m^2, 1.0 Hz), a scotopic b-wave amplitude was evaluated using a single bright flash (3 candela s/m^2) that we previously determined consistently produces a response close to the maximum b-wave amplitude. Student t-test was used to compare post-injection amplitudes against baseline (prior to injection).

[2] = test system: circulating monocytes and resident macrophages; assay: Monocyte/macrophage depletion in the NaIO3 model, FAF/DNIRA pattern; assay type: in vivo, rat; conditions: for NaIO3-induced pattern of FAF (and DNIRA): macrophage/monocyte depletion, Day 3 and Day 7 after NaIO3
Description: To determine the identity of the autofluorescent cells that coincide with the reticular pattern of FAF, excised retina were stained for with markers of the innate immune system, avoiding the 488 nm channel. Iba1 is a pan-microglial/macrophage marker and in the rat retina; antibodies against it identify the major phagocytic cell populations. […] Further, when compared against photoreceptor nuclear staining, this curvilinear pattern is seen to lie interposed between folds of the deformed ONL. This pattern of Iba1^+ cells corresponds with the pattern of hyperfluorescence observed in vivo by FAF imaging, and with the pattern of autofluorescent cells in excised retina. […] Importantly, at 7 days after NaIO3, all RPE cells are absent from the posterior eye cup, confirming that these cells cannot be responsible for the observed FAF. Also, identification of the autofluorescent cells as phagocytic was confirmed by comparison of imaging to preparations in which monocyte/macrophage depletion has been undertaken. Such depletion was achieved by treatment with gadolinium chloride (GAD).
Further, to confirm that hyperfluorescent FAF or abnormal patterns of FAF and hyperfluorescent DNIRA correlated or co-localized with the distribution of phagocytic cells, the circulating macrophage/monocyte population was depleted using gadolinium chloride (GAD or GdCl3), a rare earth metal salt which depresses macrophage activity. […] This was evident qualitatively both within the geographic areas of damage, and at its border (FIGS. 8A-C).

[3] = molecular target: complement factor D (CFD) (Homo sapiens, UniProt P00746); conditions: phase II, 18 month period, patients; cited from earlier work
complement factor D (CFD), sequence (P00746 26-253): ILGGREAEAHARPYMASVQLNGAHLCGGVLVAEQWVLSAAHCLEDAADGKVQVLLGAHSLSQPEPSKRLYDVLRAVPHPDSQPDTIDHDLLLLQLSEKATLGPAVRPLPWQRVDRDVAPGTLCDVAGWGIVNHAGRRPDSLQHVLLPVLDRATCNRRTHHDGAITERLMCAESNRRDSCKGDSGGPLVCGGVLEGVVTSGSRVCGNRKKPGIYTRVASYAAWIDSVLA

## CC1(C)C(/C=C/C=C/C=C/C=C2\N(CCCCS(=O)(=O)O)c3ccc4ccccc4c3C2(C)C)=[N+](CCCCS(=O)(=O)[O-])c2ccc3ccccc3c21 [ICG, indocyanine green]
[1]
  change in ERG b-wave amplitude: no statistically significant change

## [Cl][Gd]([Cl])[Cl] [GAD, gadolinium chloride]
[2]; 7 days after NaIO3 and simultaneous GAD depletion
  area of damage: smaller areas of damage
[2]
  NaIO3-induced pattern of FAF (and DNIRA): far less well defined reticular patterns of FAF; also recorded: profound alteration; also recorded: less well-demarcated borders
[2]; listed as gadolinium
  NaIO3-induced pattern of FAF (and DNIRA): alters the FAF pattern

## Lampilizumab: complement factor D (CFD) inhibitor; anti-factor D antibody (Genentech)
[3]
  growth (expansion) of geographic atrophy: can slow the growth
